{"source": "patent US20180326022A1", "about": "“COMPOSITIONS AND METHODS FOR IMPROVING HEART FUNCTION AND TREATING HEART FAILURE” (The Trustees of the University of Pennsylvania, priority 2017, published 2018)", "key": {"[1]": {"system": "human myocytes", "assay": "Nanoindentation stiffness measurements", "format": "cell-based", "settings": "failing human myocytes; 10 μM, 2 hours", "procedure": "Viable myocytes were concentrated by gravity (5-7 min) and supernatant was aspirated to remove dead cells. Myocytes were resuspended in NT solution containing 1 mM Ca^2+ and concentrated by gravity (5-7 min) again. Cardiomyocytes used acutely were maintained in NT solution for up to 6 hours. Myocytes were treated with 10 μM parthenolide (Fisher Scientific NC9013142 or Sigma P0667) or 10 μM colchicine (Sigma) at room temperature in NT solution for 2 hours. Experiments were performed within 6 hours of isolation, except for those involving viral transduction in cultured cells.\nMatTek glass bottom dish was coated 5 μl of 0.5 mg/ml laminin and air dried for 10 min. Culture medium was F-10 (1×) Nutrient Mixture (Ham) [+] L-Glutamine (Life Technologies, 11550-043) supplemented with insulin-transferrin selenium-X (Gibco, 51500-056), 20 mM HEPES, 1 μg/μl primocin (Invivogen, ant-pm-1), 0.4 mM extra CaCl2, 5% FBS, 25 μM cytochalasin D (Cayman, 11330). Viable myocytes were concentrated and a proper amount of medium was added in culture so that neighboring cells were not in direct contact. […]\nMechanical properties at the microscopic scale were measured using nanoindentation (Piuma, Optics11, The Netherlands). […] The Young's moduli were calculated automatically by the software, by fitting the force vs. indentation curve to the Hertz equation. […]"}, "[2]": {"system": "detyrosinated tubulin", "assay": "Western blotting of cardiomyocyte lysates (TTL, α-, detyr-, tyr-tubulin)", "format": "cell-based", "settings": "rat cardiomyocytes; PTL treatment; shTTL; short term EpoY", "procedure": "Viral constructs were permitted to express for 24-72 hours with Moi=100-200. Parthenolide (Fisher Scientific NC9013142) treatment was carried out at room temperature for 2 hours at 10 μM. All experiments were performed within 48 hours of isolation, except those involving shTTL, which were allowed 72 hours to improve knockdown efficiency.\nFor analysis of proteins expression levels quantitative Western blots were performed using infrared fluorescence imaging on an Odyssey Imager (LI-COR). Cell homogenates were prepared in ice-cold IGEPAL lysis buffer. After 1 freezing cycle lysates were spun at 18,000×g for 5 min. Aliquots of supernatants were mixed with 4× sample buffer (LI-COR, 928-40004) containing 10% BME, boiled for 6 min., and resolved on sodium dodecyl sulfate (SDS)-polyacrylamide gel electrophoresis Tris-glycine gels (Bio-Rad). Proteins were transferred to a membrane on Mini Trans-Blot Cell (Bio-Rad), blocked 1 h in Odyssey Blocking Buffer (TBS) (LI-COR, 927-50000), and probed with the corresponding primary antibody (see list below) for 2 h at room temperature. Membranes were then rinsed with TBST 4 times for 5 min, and incubated with secondary antibodies (below) for 1.5 h at room temperature. Membranes were rinsed again with TBST and then imaged on Odyssey Imager. Image analysis was performed using Image Studio Lite software (LI-COR). Fluorescent band intensity was always normalized to GAPDH loading control. Analysis of human tissue samples for levels of detyrosinated tubulin was performed blinded to the experimental groups."}, "[3]": {"system": "cardiac and skeletal muscle", "settings": "10 μM; refs (13), (8); cited from earlier work"}}}
{"compound": "C=C1C(=O)O[C@H]2[C@H]1CC/C(C)=C/CC[C@@]1(C)O[C@@H]21", "note": "[PTL, 4,5-epoxygermacra-1(10),11(13)-dien-12,6-olactone]", "values": [{"measurement": "viscoelasticity (Emax and EΔ)", "setting": "[1]", "result": "robustly reduced viscoelasticity"}, {"measurement": "alpha / total tubulin levels (western blot)", "setting": "[2]", "result": "no significant change"}, {"measurement": "detyrosinated tubulin (western blot)", "setting": "[2]", "result": "significant drop"}, {"measurement": "effect on microtubules", "setting": "[3]", "result": "suppresses detyrosination"}]}
